A word on the melting point: it is the temperature of the solid-liquid transition.

The record followed here is a melting point compilation (Tetko et al.; mined from patent text by program, amines drawn as free bases though some values may be those of a salt).

`CC(=O)CCC(=S)N(CC(=O)O)C1Cc2ccccc2C1` came in with a melting point of 120 to 122 °C. As for `COc1ccc2c(c1)CCC(N(CC(=O)O)C(=O)C(C)CSC(C)=O)C2` (stereo not drawn), the figure is 118 to 122 °C; as for `C=CCOC(=O)C1=C(C)NC(C)=C(C(=O)OC)C1c1ccccc1F` (stereo not drawn), 130 °C; as for `CCCc1cn(Cc2ccc(C(=O)NS(=O)(=O)c3ccccc3Cl)cc2OC)c2cc(CCCC(=O)N(C)C)ccc12`, 137 to 138 °C.

As for `C#Cc1ccc2sccc2c1`, the melting point is 55 °C. With `O=C1CCC(=O)N1Cn1nnc(-c2ccnc(-c3nnn(CN4C(=O)CCC4=O)n3)c2)n1` the figure was 190 to 192 °C. Consider `O=C(O)c1cn(C2CCN(c3c(F)cc4c(=O)c(C(=O)O)cn(C5CC5)c4c3F)C2)nn1` (stereo not drawn), for which the melting point lay in the range of 222 to 225 °C. As for `CCCCCCOc1ccc(C(=O)Nc2ccccc2Oc2cccc(OCc3nnn[nH]3)c2)cc1`, the figure is 158 to 159 °C. With `Cc1c(C)c(-c2cccc(CO)c2)c(C)c(C)c1O` the figure was 152 to 153 °C; with `Cc1cccc(N=C2NCCN2)c1`, 115 °C. Turning to `CC(C)c1ccc2ncn(/C=C/C(=O)NCCNCc3cccnc3)c(=O)c2c1`, the melting point lay in the range of 121 to 124 °C.

On to `Cc1ncc([N+](=O)[O-])n1CCN1C(=O)c2cccc([N+](=O)[O-])c2C1=O`, for which the melting point was 175 to 176 °C.

Regarding `CN(C)c1cccc(-c2nc3c(N[C@H]4[C@@H](C(N)=O)[C@@H]5C=C[C@H]4C5)ccnc3[nH]2)c1`, the melting point was in the range of 200 to 204 °C. With `Cc1nc(-c2nc(-c3ccc(F)cc3)c(-c3ccc(S(C)(=O)=O)cc3)s2)cs1`, the melting point lay in the range of 184 to 186 °C. With `CC(C)CC(=O)Nc1cccc(-c2ccnc3c(-c4cccc(CN(C)C)c4)cnn23)c1` the figure was 179 to 182 °C; with `O=c1ccc(-c2ccc(OC(F)F)c(OCC3CC3)c2)n[nH]1`, 142 °C; with `CCOCc1nc2c(N)nc3cc(OCCCc4cccs4)ccc3c2n1CC(C)(C)NS(C)(=O)=O`, 202 to 203 °C. As to `c1ccc2c(c1)CCc1ccccc1C21CO1`, the melting point fell in the range of 79 to 80 °C. With `N#Cc1cc(NC(=O)c2ccn(-c3ccc(F)cc3)c2)ccc1N1CCCCC1` the figure was 195 to 196 °C; with `Cc1ccc(NCc2ccc(/C=C/C(=O)NO)cc2)cc1Nc1nccc(-c2cccnc2)n1`, 201 to 205 °C; with `O=Cc1ccc(OCC(F)(F)F)c(O)c1`, 133 to 135 °C.

`COC(=O)c1cc(C(=O)OC)nc(O)n1` yielded a melting point of 186 to 188 °C. With `CCCC(C)c1nn(-c2ccc(C(F)(F)F)cn2)cc1CCCOc1c(C)cccc1CC(=O)O` (stereo not drawn) the figure was 147 to 148 °C; with `CCC(=NNC(=O)c1ccccc1)c1cccnc1`, 169 °C. With `CC(=O)Nc1nc(C)c(S(=O)(=O)NC(C)(C)CO)s1` the figure was 194 °C; with `N#Cc1ccc2[nH]cc(CCN)c2c1`, 102 to 105 °C; with `COc1cccc(Oc2cccc(NC(=O)c3ccn4c3CSC4c3cccnc3)c2)c1` (stereo not drawn), 130 °C. As to `CN(C(=O)OC(C)(C)C)c1cc(Oc2ccc(OCc3ccccc3)cc2)ccc1[N+](=O)[O-]`, the melting point lay within 108 to 110 °C.

The compound `O=[N+]([O-])c1cc(S(=O)(=O)C(F)(F)F)c(-c2ccc(Cl)cc2)[nH]1` yielded a melting point of 174 to 180 °C. Turning to `COC(=O)c1ccc(Cn2c(=O)c(C)c3sc(C(=O)NCc4cccc(F)c4)cn3c2=O)cc1`, the melting point is 209 to 211 °C. Compound `CC(CO)(Oc1ccc(C(=O)c2ccc(Cl)cc2)cc1)C(=O)O` (stereo not drawn) returned a melting point of 172 to 174 °C. In turn, `O=C(NNc1ccccc1)c1nc(Cl)c(Cl)[nH]1` yielded a melting point of 229 to 230 °C. With `CCc1noc(C)c1-c1c(C(O)CN(C)C)c2ccccc2n1C` (stereo not drawn) the figure was 119 to 121 °C; with `Cc1cc(-c2cc(C(C)(C)C)[nH]n2)c(F)cc1Cl`, 138 °C. On to `CC(C)n1nc(-c2sc(NC(=O)c3ccc(CN4CCOCC4)cc3)nc2-c2ccccc2)ccc1=O`, for which the melting point is 222 to 224 °C. As for `COC(=O)c1cc2cc(OC(F)F)ccc2nc1C(=O)OC`, the figure is 84 to 85 °C; as for `COc1ccc2nc(-n3ccnc3)nc(NCCSC)c2c1`, 168 to 178 °C.

Consider `COC(=O)Cc1csc2cc(-c3ccccc3)c(C=O)n12`, for which the melting point lay in the range of 118 to 120 °C. `CCCC(C(N)=O)n1cc(C)c(-c2ccccc2)n1` (stereo not drawn) returned a melting point of 116 to 118 °C. On to `Cc1sc(C(N)=O)c2c1-c1nn(Cc3ccccc3)cc1CC2`, for which the melting point is 182 to 183 °C. `Cc1ccc2nc(C)c(C(=O)NNC(=O)CCl)n2c1` showed a melting point of 290 to 291 °C. As to `CCCCn1c(C)nnc1SC(N)=O`, the melting point was in the range of 112 to 114 °C. The compound `O=C1N[C@H](Cc2cccc(OCC(F)(F)F)c2)[C@H](c2ccc(F)cc2)O1` (racemic) registered a melting point of 148 to 149 °C. As for `CN(C)C=C1CN=C(c2ccccc2)c2cc(Cl)ccc2C1=O`, the figure is 179 to 180 °C.

The compound `CS(=O)(=O)N1CCC(COCc2cc(C(F)(F)F)cc(C(F)(F)F)c2)(c2ccccc2)CC1` registered a melting point of 102 to 104 °C. As for `CN(C)[C@H]1CC[C@H](NC(=O)OC(C)(C)C)C1`, the figure is 65 to 67 °C; as for `Cn1cncc1C(O)(c1ccc2c(c1)OCCO2)c1ccc2[nH]c(=O)nc(-c3cccc(Cl)c3)c2c1` (stereo not drawn), more than 260 °C. As for `CN(C)C(=O)C(C#N)=C(OC(=O)c1ccc(Cl)cc1[N+](=O)[O-])c1ccc(Cl)cc1[N+](=O)[O-]`, the figure is 137 to 146 °C; as for `C=CCN(C=CC=C(C#N)C#N)CC=C`, 50 to 52 °C.

As to `O=C(O)CC=CC12CC(c3ccccc31)c1ccccc12`, the melting point is 166 to 167 °C. With `CCCCCCCS(=O)(=O)c1ccc(N)cc1` the figure was 91 to 92 °C; with `O=C1C=CC(c2ccccc2)(c2ccccc2)C=C1O`, 145 °C.

Take `COc1cc2ncc(C#N)c(Nc3cccnc3)c2cc1OC`: the melting point lay within 231 to 233 °C. As for `CC(Cl)CCC(=O)Nc1c(C#N)cnn1-c1ccc(Cl)c(Cl)c1Cl` (stereo not drawn), the figure is 126 to 127 °C; as for `COc1ccc2c(c1)c(CCOC(=O)c1cc(O)c3c(c1)C(=O)c1cccc(O)c1C3=O)c(C)n2C(=O)c1ccc(Cl)cc1`, 139 to 146 °C; as for `Clc1ccc(-c2nc[nH]c2-c2cccs2)cc1`, 244 to 245 °C. As for `CC1=C(c2cccc(C(F)(F)F)c2)n2ncc3c(=O)nc(NC(C)C)n(c32)C1`, the figure is 284 to 286 °C. With `Cc1ccc(F)c2c1N(C(c1ccccc1)c1ccccc1)C(=O)C21COc2cc3c(cc21)CCO3` (stereo not drawn), the melting point lay within 81 to 82 °C. The compound `COc1cc(-c2snnc2C)cc2oc(=O)c(C)c(C)c12` had a melting point of 204 to 206 °C. Regarding `CC(O)COc1ccc2c(c1)c(-c1cc3cccnc3[nH]1)cn2C` (stereo not drawn), the melting point fell in the range of 198 to 199 °C. Compound `CC(CS)C(=O)NC(CCCNC(=N)N)C(=O)O` (stereo not drawn) returned a melting point of 100 °C. As for `CSC(=S)C1(c2ccc3ccccc3n2)CCCS1` (stereo not drawn), the figure is 72 °C; as for `CCc1nc(/C=C/c2cn(-c3ccccc3)nc2O)cs1`, 222 to 224 °C.
